Molecules are shown by their SMILES. pEC50: −log10 of the molar value. Calls of active or inactive are those of the source.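 The calls were made as follows: active = a full or partial dose-response curve in at least two of three replicate runs; inactive = the rest.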

The target of the assay is D(1B) dopamine receptor (Homo sapiens) (UniProt P21918). Put plainly: dopamine D5 receptor modulation at EC30 dopamine, dose response, selectivity assay for D1 allosteric modulator project, cell-based, HEK293, CRE-luciferase, luminescence (AID 857).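 Also: HEK 293 cells expressing human D5 with a CRE-driven luciferase reporter.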
Sequence of D(1B) dopamine receptor (Homo sapiens) (P21918 whole entry, looked up): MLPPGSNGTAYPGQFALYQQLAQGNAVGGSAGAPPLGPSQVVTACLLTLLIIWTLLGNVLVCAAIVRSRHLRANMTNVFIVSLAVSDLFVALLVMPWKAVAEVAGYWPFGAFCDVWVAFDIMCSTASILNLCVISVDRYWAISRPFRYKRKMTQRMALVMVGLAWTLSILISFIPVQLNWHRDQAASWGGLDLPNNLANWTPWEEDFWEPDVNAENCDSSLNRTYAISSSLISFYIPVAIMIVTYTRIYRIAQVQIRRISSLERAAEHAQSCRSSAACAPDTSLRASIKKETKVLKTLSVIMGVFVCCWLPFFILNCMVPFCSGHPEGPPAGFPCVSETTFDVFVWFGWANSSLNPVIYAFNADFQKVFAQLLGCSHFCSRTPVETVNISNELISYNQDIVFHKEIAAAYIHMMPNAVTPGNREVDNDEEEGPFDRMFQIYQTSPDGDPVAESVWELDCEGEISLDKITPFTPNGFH
For the compound `Cc1sc2nc(CN3CCN(S(=O)(=O)c4cccc5nonc45)CC3)[nH]c(=O)c2c1C`, the outcome was inactive.

For the compound `CCSc1nc2c(c(=O)n1Cc1ccccc1)SC(C)C2` (configuration not stated), the result was inactive. Still for that read-out and setting: as for `Cc1cc(N)n(-c2nc(-c3cccnc3)nc3ccccc23)n1`, the entry is “inactive”; as for `C=CCn1c(=O)c2c(C)c(C)sc2n2c(Nc3ccc(OC)cc3)nnc12`, “inactive”.

On to `Cc1ccc(-c2cc(-c3ccc(C)o3)nc(N)c2C#N)cc1`, for which the outcome was inactive.

As to `Cn1cccc1C1NC(=O)c2c(sc3c2CCC(C(C)(C)C)C3)N1` (configuration not stated), the outcome was inactive. Turning to `Cc1ccc(Cn2c(-n3nc(C)cc3C)nc3c2c(=O)[nH]c(=O)n3C)cc1`, the result was inactive. Consider `O=C(NCc1cccs1)C1CC(c2ccccc2O)=NO1` (configuration not stated), for which the outcome was inactive. Still for that read-out and setting: as for `COc1ccc(Cn2nnc3c(=O)[nH]c(C4CCCN(C(=O)c5ccccc5)C4)nc32)cc1` (configuration not stated), the entry is “inactive”; as for `CCn1nc(C(=O)NC2=NCCS2)c2ccccc2c1=O`, “inactive”. The same measure, in the same setting: with `CCN1C(=O)c2cccc3c(S(=O)(=O)Nc4ccccn4)ccc1c23` the entry was “inactive”; with `CC(=O)C1=C(C)NC(SCC(=O)c2ccc(F)cc2)=C(C#N)C1c1ccco1` (configuration not stated), “inactive”. Turning to `COc1ccccc1-n1c(=O)[nH]c2c(C(N)=O)nc(CC(C)C)nc21`, the outcome was inactive. On the same count and under the same terms, with `Fc1ccc(-c2cc(C(F)(F)F)nc(-n3cncn3)n2)cc1` the entry was “inactive”; with `COc1ccc(OC)c(C2=NOC(C(=O)Nc3cccc(C(C)=O)c3)C2)c1` (configuration not stated), “inactive”; with `N#Cc1ccc(-c2ccco2)nc1SCc1ccccc1`, “inactive”. For `Clc1ccccc1Cn1nnc2c(N3CCCC3)ncnc21`, the result was inactive. The same measure, in the same setting: with `COc1cc2c(cc1OC)C(C(=O)Nc1ccc3c(c1)OCCO3)C1c3ccccc3CCN1C2=O` (configuration not stated) the entry was “inactive”. The same measure, in the same setting: with `CCC(Sc1nc(=O)cc(N)n1CCc1ccccc1)C(=O)Nc1ccccc1C#N` (configuration not stated) the entry was “inactive”; with `Cc1nc(N2CCC(C(N)=O)CC2)c2nnn(Cc3ccccc3)c2n1`, “inactive”. Same read-out and setting: as for `COCCNc1oc(-c2ccc(C)cc2)nc1C#N`, the entry is “inactive”; as for `N#CC1=C(N)N(c2ccccc2)C2=C(C(=O)CCC2)C1c1cccs1` (configuration not stated), “inactive”. As to `COc1ncnc2c1N[C@@](C)(O)c1c(F)c(F)c(F)c(F)c1S2`, the result was inactive.

In the case of `COc1ccc(-c2coc3cc(O)ccc3c2=O)cc1OC`, the outcome was inactive. For `COc1ccc(-c2noc(COc3ccc4ccccc4c3Br)n2)cc1OC`, the result was inactive. Same read-out and setting: as for `CCOC(=O)c1c(-c2cccs2)csc1NC(=O)CSc1ncn[nH]1`, the entry is “inactive”. Consider `COCc1cc(C)nc2sc(C(=O)N3CCN(c4ccccc4)CC3)c(N)c12`, for which the negative logarithm of the EC50 (pEC50) is 6.67. Turning to `Cc1ccc(CCNS(=O)(=O)c2cnc[nH]2)cc1`, the result was inactive.

For the compound `c1ccc(-c2nc3nonc3nc2-c2ccccc2)cc1`, the result was inactive.

Take `CSc1nc2c(c(=O)n1-c1ccccc1)SCC2`: the result was inactive.

Turning to `Cc1csc2c(C#N)c(=O)c3c(n12)CCC3`, the outcome was inactive. Still for that read-out and setting: as for `CC(C)C1C(C#N)=C(N)Oc2n[nH]c(-c3ccccc3)c21` (configuration not stated), the entry is “inactive”. As for `Nc1nc2n(n1)C(c1ccccc1)CC(c1ccc(F)cc1)N2` (configuration not stated), the result was inactive. Regarding `CCSc1nc2c(c(=O)n1CC)SC(C)C2` (configuration not stated), the outcome was inactive. For the compound `CCSc1nc(-c2ccco2)ccc1C#N`, the result was inactive. Still for that read-out and setting: as for `C=CCn1c2ccccc2c2nnc(SCC(=O)NC(C(=O)OC)C(C)C)nc21` (configuration not stated), the entry is “inactive”. Consider `NC(=O)COc1ccc(NC(=O)OCc2ccccc2)cc1`, for which the outcome was inactive. Still for that read-out and setting: as for `CCOC(=O)CSc1nc2c(sc(=S)n2Cc2ccco2)c(=O)n1-c1ccccc1`, the entry is “inactive”; as for `CC(C)Cn1c(=O)c2c(c3ccccc31)OC(C)C(=O)N2` (configuration not stated), “inactive”. Still for that read-out and setting: with `N#CC1=C(N)Oc2nc(-c3ccccc3)[nH]c2C1c1cccnc1` (configuration not stated) the entry was “inactive”; with `COC(=O)C(C)C1Sc2ccccc2NC1=O` (configuration not stated), “inactive”. Same read-out and setting: with `Cc1ccc(C2C(C#N)=C(N)Oc3n[nH]c(-c4cccs4)c32)s1` (configuration not stated) the entry was “inactive”; with `COc1nc(NCc2ccc(Cl)cc2)nc(OC)n1`, “inactive”. In the case of `O=C(c1ccco1)N1CCN(c2nc(C3CC3)nc3sc4c(c23)CCCC4)CC1`, the outcome was inactive. The same measure, in the same setting: with `COc1cccc(NC2=NCC(=O)N2Cc2cccs2)c1` the entry was “inactive”. `Cn1c(Cn2c(=O)sc3ccccc32)nnc1SCC(=O)N1CCOCC1`: the result was inactive.

For `N#CCCN1CCN(S(=O)(=O)c2ccc(S(=O)(=O)NC3CCCCC3)cc2)CC1`, the outcome was inactive. Still for that read-out and setting: as for `c1csc(-c2nn3c(Cn4nnc5ccccc54)nnc3s2)c1`, the entry is “inactive”; as for `CNc1nc(C)c(C(=O)OCC(=O)OC)s1`, “inactive”. On to `COC(=O)c1c(-c2ccc(F)cc2)csc1NC(=O)c1ccco1`, for which the result was inactive. Same read-out and setting: with `COc1ccc(-c2csc3nc(C)n(-n4cccc4)c(=O)c23)cc1OC` the entry was “inactive”. Consider `COc1cccc(-c2nn3c(-c4cc(C)[nH]n4)nnc3s2)c1`, for which the outcome was inactive. Same read-out and setting: with `COc1ccc(-c2noc(CCN3C(=O)c4ccccc4C3=O)n2)cc1OC` the entry was “inactive”; with `Cc1ccc(S(=O)(=O)N2CCN(C(=O)COC(=O)c3cc(C)oc3C)CC2)cc1`, “inactive”. Still for that read-out and setting: as for `COCCCNc1nc2ccccc2nc1NS(=O)(=O)c1cccs1`, the entry is “inactive”; as for `C/C=C/Cn1c(SCCCc2ccccc2)nc2c1c(=O)[nH]c(=O)n2C`, “inactive”; as for `CCCOc1ccccc1NC(=O)c1ccc(N)cc1`, “inactive”.

For `CC(C)Cn1c(-c2cccs2)nc2nc3ccccc3nc21`, the result was inactive. Same read-out and setting: as for `Fc1ccc(NC2=NCCS2)cc1Cl`, the entry is “inactive”; as for `O=c1c2ccccc2nc(SCc2cccc(F)c2)n1Cc1ccco1`, “inactive”. Same read-out and setting: as for `CCCCn1c(O)c(C(C)=NCc2ccc(F)cc2)c(=O)[nH]c1=O`, the entry is “inactive”; as for `O=CN1Cc2[nH]c3ccccc3c2N(c2ccc(Cl)cc2)C1=O`, “inactive”; as for `CC(=O)c1nn(-c2cccc(Cl)c2)cc1C(=O)c1ccco1`, “inactive”. Consider `CCC(=O)n1nc(-c2cccnc2)nc1NCc1ccc(OC)cc1`, for which the outcome was inactive. Turning to `Cc1nc2ccc(CCO)cc2s1`, the result was inactive. Same read-out and setting: as for `Cc1ccc(-c2nc3ncccn3c2NC(=O)C2CC2)cc1`, the entry is “inactive”; as for `COc1ccc(S(=O)(=O)Nc2ccc3c(c2)OCO3)cc1OC`, “inactive”. Same read-out and setting: as for `COc1ccc(N2C(=O)C3CCCN3C2c2ccccc2)cc1Cl` (configuration not stated), the entry is “inactive”. On to `COC(=O)c1ccc(COc2nc(C)cc(C)c2C#N)o1`, for which the result was inactive. For `O=C(C1CCC1)N1CCc2cc(S(=O)(=O)NCc3cccnc3)ccc21`, the outcome was inactive.

Turning to `Cc1oc2ccc(OCC(N)=O)cc2c1C(=O)OC(C)C`, the result was inactive. As for `CCCn1c(=NC(C)=O)c(C(=O)OCC)cc2c(=O)n3ccccc3nc21`, the outcome was inactive.

`Cc1nn2c(N3CCCC3)cc(C(C)C)nc2c1-c1ccccc1`: the outcome was inactive. On the same count and under the same terms, as for `NC(=O)c1cc(-c2ccccc2)nc(N2CCCCCC2)n1`, the entry is “inactive”; as for `CCCn1c(SCC(=O)Nc2sc(C)c(C)c2C(=O)OCC)nc2c1c(=O)n(C)c(=O)n2C`, “inactive”.

For the compound `N#Cc1c2c(nc(N)c1-c1ccccc1)CCCCC2`, the result was inactive. Take `COC(=O)c1ccc(CSc2nc3c(cnn3-c3ccc(F)cc3)c(=O)[nH]2)o1`: the outcome was inactive.

As to `CCCc1nc2sc3c(SCC(=O)NCc4ccco4)ncnc3c2c2c1CCC2`, the result was inactive. Take `Nc1nc(CN2CCN(c3ccccc3)CC2)nc(N2CCCc3ccccc32)n1`: the result was inactive. Same read-out and setting: with `Fc1cc(Br)ccc1Nc1nc2ccccc2n2nnnc12` the entry was “inactive”; with `COC(=O)c1cccc(S(=O)(=O)N2CCC(NC(=O)NC34CC5CC(CC(C5)C3)C4)CC2)c1`, “inactive”. For the compound `Cc1ccc(-n2c(=O)cc(N3CC(C)CC(C)C3)[nH]c2=O)cc1` (configuration not stated), the result was inactive. On the same count and under the same terms, with `CC(=O)c1cc(C#N)c(SCc2ccncc2)nc1C` the entry was “inactive”; with `CCOC(=O)N1CCN(C(=O)C(C)(C)Oc2ccc(Cl)cc2)CC1`, “inactive”. In the case of `CC1CCCCN1C(=O)CSc1nc(C2CC2)nc2c1cnn2-c1ccccc1` (configuration not stated), the result was inactive. Still for that read-out and setting: with `CSc1nc2oc3c(c2c2nncn12)CC(C)(C)SC3` the entry was “inactive”. Still for that read-out and setting: with `CSC1=NCCN1C(=O)Cc1cccs1` the entry was “inactive”.

On to `O=C1OCCC1Sc1ncnc2sc3c(c12)CCC3` (configuration not stated), for which the outcome was inactive. As for `CCn1c(=O)c(C(=O)NCc2cccnc2)c(O)c2ccccc21`, the result was inactive. Still for that read-out and setting: as for `CCCc1cc(C(=O)Nc2sc(C(C)=O)c(C)c2C(=O)OCC)no1`, the entry is “inactive”.

For the compound `Brc1ccc(-c2nn3c(Cc4ccccc4)nnc3s2)o1`, the result was inactive. Same read-out and setting: with `CCOC(=O)c1cc2c(=O)n3ccccc3nc2n(CCCOC)c1=NC(=O)C(C)(C)C` the entry was “inactive”. Turning to `Cc1c(C(=O)OCC(C)C)[nH]c2c1C(=O)CC(c1ccco1)C2` (configuration not stated), the negative-log EC50 (pEC50) is 5.76.

Turning to `CCCCNC(=O)c1ccc2nc(-c3ccco3)c(-c3ccco3)nc2c1`, the result was inactive. The same measure, in the same setting: as for `O=C(NCc1ccco1)c1cnn2c(C(F)(F)F)cc(-c3ccco3)nc12`, the entry is “inactive”; as for `CCOC(=O)C(C)Oc1cccc2c(=O)n(CC(=O)NCc3ccco3)ccc12` (configuration not stated), “inactive”. Consider `Cn1c2c(c3ccccc31)CC/C2=N\O`, for which the result was inactive.

The values above are taken from PubChem BioAssay AID857 (Vanderbilt High Throughput Screening Facility, 2007).
